Results from patent publication US20250049798A1, “WEE1 PROTEIN KINASE DEGRADATION AGENT AND USE THEREOF” (HANGZHOU GLUBIO PHARMACEUTICAL CO. LTD., priority 2021, published 2025).

Target: HiBiT tagged Wee1 (Homo sapiens, UniProt P30291)
Assay: Wee1 protein degradation assay (HiBiT assay)
Assay type: cell-based
Settings: engineered HT-1080 cells, 20 hours; for Dmax: maximum percentage of Wee1 degradation, read-out: HiBiT Wee1: Dmax

Sequence of HiBiT tagged Wee1 (P30291 whole entry): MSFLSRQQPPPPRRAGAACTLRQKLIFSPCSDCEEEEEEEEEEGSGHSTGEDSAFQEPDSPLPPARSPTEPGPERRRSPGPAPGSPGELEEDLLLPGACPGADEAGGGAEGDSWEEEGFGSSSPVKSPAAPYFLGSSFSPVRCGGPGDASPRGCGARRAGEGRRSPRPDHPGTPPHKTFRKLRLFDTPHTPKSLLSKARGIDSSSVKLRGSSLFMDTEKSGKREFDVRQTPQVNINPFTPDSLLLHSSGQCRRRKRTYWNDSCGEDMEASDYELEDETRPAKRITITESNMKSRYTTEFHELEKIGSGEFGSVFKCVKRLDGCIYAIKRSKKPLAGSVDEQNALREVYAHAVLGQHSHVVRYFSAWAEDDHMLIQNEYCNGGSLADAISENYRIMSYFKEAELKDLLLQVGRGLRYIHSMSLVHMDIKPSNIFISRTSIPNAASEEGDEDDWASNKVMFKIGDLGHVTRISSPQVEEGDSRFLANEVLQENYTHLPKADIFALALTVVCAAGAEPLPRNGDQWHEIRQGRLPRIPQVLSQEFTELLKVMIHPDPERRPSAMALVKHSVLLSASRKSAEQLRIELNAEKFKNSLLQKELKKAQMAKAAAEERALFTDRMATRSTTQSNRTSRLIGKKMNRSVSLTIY

## C=CCn1c(=O)c2cnc(Nc3ccc(C4CCN(C5CCN(c6ccc7c(c6)C(=O)N(C6CCC(=O)NC6=O)C7=O)C5)CC4)cc3)nc2n1-c1cccc(C(C)(C)O)n1 (centres unmarked) [Compound 39]
  DC50: 100 to 1000 nM
  Dmax: 50 to 75%

## C=CCn1c(=O)c2cnc(Nc3ccc(N4CCN(C5CCN(c6ccc7c(c6)C(=O)N(C6CCC(=O)NC6=O)C7=O)CC5)CC4)cc3)nc2n1-c1cccc(C(C)(C)O)n1 (centres unmarked) [Compound 40]
  DC50: < 100 nM
  Dmax: 50 to 75%

## O=C1CCC(N2C(=O)c3ccc(N4CC(N5CCC(c6ccc(Nc7ncc8c(=O)n(-c9c(Cl)cccc9Cl)c9nccn9c8n7)cc6)CC5)C4)cc3C2=O)C(=O)N1 (centres unmarked) [Compound 42]
  DC50: > 1000 nM
  Dmax: 50 to 75%

## C=CCn1c(=O)c2cnc(Nc3ccc(C4CCN(C5CN(c6ccc7c(c6)C(=O)N(C6CCC(=O)NC6=O)C7=O)C5)CC4)cc3)nc2n1-c1cccc(C(C)(C)O)n1 (centres unmarked) [Compound 43]
  DC50: < 100 nM
  Dmax: > 75%

## C=CCn1c(=O)c2cnc(Nc3ccc(C4CCN(C5CCN(c6cc7c(cc6F)C(=O)N(C6CCC(=O)NC6=O)C7=O)CC5)CC4)cc3)nc2n1-c1cccc(C(C)(C)O)n1 (centres unmarked) [Compound 44]
  DC50: < 100 nM
  Dmax: 50 to 75%

## C=CCn1c(=O)c2cnc(Nc3ccc(N4CCN(CCCc5ccc6c(c5)C(=O)N(C5CCC(=O)NC5=O)C6=O)CC4)cc3)nc2n1-c1cccc(C(C)(C)O)n1 (centres unmarked) [Compound 45]
  DC50: < 100 nM
  Dmax: > 75%

## C=CCn1c(=O)c2cnc(Nc3ccc4c(c3)CN(CCCCc3cccc5c3CN(C3CCC(=O)NC3=O)C5=O)CC4)nc2n1-c1cccc(C(C)(C)O)n1 (centres unmarked) [Compound 49]
  DC50: > 1000 nM
  Dmax: < 50%

## C=CCn1c(=O)c2cnc(Nc3ccc(N4CCN(CCCCc5cccc6c5CN(C5CCC(=O)NC5=O)C6=O)CC4)cc3)nc2n1-c1cccc(C(C)(C)O)n1 (centres unmarked) [Compound 50]
  DC50: < 100 nM
  Dmax: 50 to 75%

## C=CCn1c(=O)c2cnc(Nc3ccc(N4CCC(CN5CCC(c6cccc7c6n(C)c(=O)n7C6CCC(=O)NC6=O)CC5)CC4)cc3)nc2n1-c1ccc2c(n1)[C@](O)(CC)CC2 (some centres unmarked) [Compound 53]
  DC50: > 1000 nM
  Dmax: < 50%

## C=CCn1c(=O)c2cnc(Nc3ccc(N4CCC(CN5CCN(c6ccc7c(c6)C(=O)N(C6CCC(=O)NC6=O)C7=O)CC5)CC4)cc3)nc2n1-c1cccc(C(C)(C)O)n1 (centres unmarked) [Compound 56]
  DC50: < 100 nM
  Dmax: 50 to 75%

## C=CCn1c(=O)c2cnc(Nc3ccc(N4CCC(CN5CCN(c6cc7c(cc6F)C(=O)N(C6CCC(=O)NC6=O)C7=O)CC5)CC4)cc3)nc2n1-c1cccc(C(C)(C)O)n1 (centres unmarked) [Compound 57]
  DC50: < 100 nM
  Dmax: 50 to 75%

## COc1ccc(C(=O)N2CCC(CN3CCN(Cc4ccc(Nc5ncc6c(=O)n(-c7c(Cl)cccc7Cl)c7nccn7c6n5)cc4)CC3)CC2)cc1N1CCC(=O)NC1=O [Compound 58]
  DC50: > 1000 nM
  Dmax: < 50%

## COc1ccc(C(=O)N2CCC3(CCN(Cc4ccc(Nc5ncc6c(=O)n(-c7c(Cl)cccc7Cl)c7nccn7c6n5)cc4)CC3)CC2)cc1N1CCC(=O)NC1=O [Compound 59]
  DC50: > 1000 nM
  Dmax: < 50%

## COc1ccc(C(=O)N2CCC(OC3CCN(Cc4ccc(Nc5ncc6c(=O)n(-c7c(Cl)cccc7Cl)c7nccn7c6n5)cc4)CC3)CC2)cc1N1CCC(=O)NC1=O [Compound 60]
  DC50: > 1000 nM
  Dmax: < 50%

## C=CCn1c(=O)c2cnc(Nc3ccc(N4CCN(CCCOc5ccc6c(c5)C(=O)N(C5CCC(=O)NC5=O)C6=O)CC4)cc3)nc2n1-c1cccc(C(C)(C)O)n1 (centres unmarked) [Compound 62]
  DC50: < 100 nM
  Dmax: > 75%

## C=CCn1c(=O)c2cnc(Nc3ccc(N4CCN(CCOc5ccc6c(c5)C(=O)N(C5CCC(=O)NC5=O)C6=O)CC4)cc3)nc2n1-c1cccc(C(C)(C)O)n1 (centres unmarked) [Compound 63]
  DC50: < 100 nM
  Dmax: 50 to 75%

## C=CCn1c(=O)c2cnc(Nc3ccc(N4CCN(CC5CCN(Cc6cccc7c6n(C)c(=O)n7C6CCC(=O)NC6=O)CC5)CC4)cc3)nc2n1-c1cccc(C(C)(C)O)n1 (centres unmarked) [Compound 64]
  DC50: < 100 nM
  Dmax: 50 to 75%

## C=CCn1c(=O)c2cnc(Nc3ccc(N4CCC(N5CCN(c6cccc7c6n(C)c(=O)n7C6CCC(=O)NC6=O)CC5)CC4)cc3)nc2n1-c1cccc(C(C)(C)O)n1 (centres unmarked) [Compound 68]
  DC50: < 100 nM
  Dmax: 50 to 75%

## C=CCn1c(=O)c2cnc(Nc3ccc(C4CCN(CC5CCN(c6ccc(NC7CCC(=O)NC7=O)cc6F)CC5)CC4)cc3)nc2n1-c1cccc(C(C)(C)O)n1 (centres unmarked) [Compound 73]
  DC50: < 100 nM
  Dmax: > 75%

## C=CCn1c(=O)c2cnc(Nc3ccc(C4CCN(C5CCN(c6ccc7c(c6)C(=O)N(C6CCC(=O)NC6=O)C7=O)CC5)CC4)cc3)nc2n1-c1ccc2c(n1)[C@@](O)(CC)CC2 (some centres unmarked) [Compound 75]
  DC50: < 100 nM
  Dmax: 50 to 75%

## C=CCn1c(=O)c2cnc(Nc3ccc(N4CCC(N5CCN(c6ccc7c(c6)C(=O)N(C6CCC(=O)NC6=O)C7=O)CC5)CC4)cc3)nc2n1-c1cccc(C(C)(C)O)n1 (centres unmarked) [Compound 77]
  DC50: < 100 nM
  Dmax: 50 to 75%

## C=CCn1c(=O)c2cnc(Nc3ccc(N4CCC(N5CCN(c6cc7c(cc6F)C(=O)N(C6CCC(=O)NC6=O)C7=O)CC5)CC4)cc3)nc2n1-c1cccc(C(C)(C)O)n1 (centres unmarked) [Compound 78]
  DC50: 100 to 1000 nM
  Dmax: 50 to 75%

## O=C1CCC(Nc2ccc(N3CCC(CN4CCN(c5ccc(Nc6ncc7c(=O)n(-c8c(Cl)cccc8Cl)c8nccn8c7n6)cc5)CC4)CC3)c(F)c2)C(=O)N1 (centres unmarked) [Compound 83]
  DC50: < 100 nM
  Dmax: > 75%

## C=CCn1c(=O)c2cnc(Nc3ccc(C4CCN(CC5CCN(c6ccc(NC7CCC(=O)NC7=O)cn6)CC5)CC4)cc3)nc2n1-c1cccc(C(C)(C)O)n1 (centres unmarked) [Compound 84]
  DC50: < 100 nM
  Dmax: 50 to 75%

## C=CCn1c(=O)c2cnc(Nc3ccc(N4CCN(CC5CCN(c6ccc(NC7CCC(=O)NC7=O)cc6Cl)CC5)CC4)cc3)nc2n1-c1cccc(C(C)(C)O)n1 (centres unmarked) [Compound 88]
  DC50: < 100 nM
  Dmax: > 75%

## C=CCn1c(=O)c2cnc(Nc3ccc(N4CCC(CN5CCN(c6cccc7c6n(C)c(=O)n7C6CCC(=O)NC6=O)CC5)CC4)cc3)nc2n1-c1cccc(C(C)(C)O)n1 (centres unmarked) [Compound 90]
  DC50: < 100 nM
  Dmax: > 75%

## O=C1CCC(Nc2ccc(N3CCN(CC4CCN(c5ccc(Nc6ncc7c(=O)n(-c8c(Cl)cccc8Cl)c8nccn8c7n6)cc5)CC4)CC3)c(F)c2)C(=O)N1 (centres unmarked) [Compound 94]
  DC50: < 100 nM
  Dmax: > 75%

## C=CCn1c(=O)c2cnc(Nc3ccc(N4CCC(N(C)C5CCN(c6cccc7c6n(C)c(=O)n7C6CCC(=O)NC6=O)CC5)CC4)cc3)nc2n1-c1cccc(C(C)(C)O)n1 (centres unmarked) [Compound 98]
  DC50: < 100 nM
  Dmax: 50 to 75%

## C=CCn1c(=O)c2cnc(Nc3ccc(C4CCN(C5CCN(c6cccc7c6n(C)c(=O)n7C6CCC(=O)NC6=O)CC5)CC4)cc3)nc2n1-c1cccc(C(C)(C)O)n1 (centres unmarked) [Compound 99]
  DC50: < 100 nM
  Dmax: 50 to 75%

## C=CCn1c(=O)c2cnc(Nc3ccc(N4CCN(CC5CCN(c6ccc(NC7CCC(=O)NC7=O)cc6F)CC5)CC4)cc3)nc2n1-c1cccc(C(C)(C)O)n1 (centres unmarked) [Compound 102-A]
  DC50: < 100 nM
  Dmax: > 75%

## C=CCn1c(=O)c2cnc(Nc3ccc(C4CCN(CC5CCN(c6ccc(NC7CCC(=O)NC7=O)cc6C(F)(F)F)CC5)CC4)cc3)nc2n1-c1cccc(C(C)(C)O)n1 (centres unmarked) [Compound 107]
  DC50: < 100 nM
  Dmax: > 75%

## C=CCn1c(=O)c2cnc(Nc3ccc(N4CCN(CC5CCN(c6ccc(NC7CCC(=O)NC7=O)cc6F)CC5)CC4)cc3)nc2n1-c1ccc2c(n1)[C@](C)(O)CC2 (some centres unmarked) [Compound 112]
  DC50: < 100 nM
  Dmax: > 75%

## C=CCn1c(=O)c2cnc(Nc3ccc(N4CCN(CC5CCN(c6ccc(NC7CCC(=O)NC7=O)cc6F)CC5)CC4)cc3)nc2n1-c1ccc2c(n1)[C@@](C)(O)CC2 (some centres unmarked) [Compound 113]
  DC50: < 100 nM
  Dmax: > 75%

## C=CCn1c(=O)c2cnc(Nc3ccc(N4CCC(CN5CCN(c6cccc7c(N8CCC(=O)NC8=O)nn(C)c67)CC5)CC4)cc3)nc2n1-c1cccc(C(C)(C)O)n1 [Compound 118]
  DC50: 100 to 1000 nM
  Dmax: 50 to 75%

## C=CCn1c(=O)c2cnc(Nc3ccc(N4CCN(CC5CN(c6ccc(NC7CCC(=O)NC7=O)cc6F)C5)CC4)cc3)nc2n1-c1cccc(C(C)(C)O)n1 (centres unmarked) [Compound 122]
  DC50: < 100 nM
  Dmax: > 75%

## C=CCn1c(=O)c2cnc(Nc3ccc(N4CCN(CC5CCN(c6cccc7c(N8CCC(=O)NC8=O)nn(C)c67)CC5)CC4)cc3)nc2n1-c1ccc2c(n1)[C@@](O)(CC)CC2 [Compound 124]
  DC50: < 100 nM
  Dmax: 50 to 75%

## C=CCn1c(=O)c2cnc(Nc3ccc(N4CCC(CN5CCN(c6ccc7c(N8CCC(=O)NC8=O)nn(C)c7c6)CC5)CC4)cc3)nc2n1-c1ccc2c(n1)[C@@](C)(O)CC2 [Compound 126]
  DC50: < 100 nM
  Dmax: 50 to 75%

## C=CCn1c(=O)c2cnc(Nc3ccc(N4CCC(CN5CCN(c6ccc7c(N8CCC(=O)NC8=O)nn(C)c7c6)CC5)CC4)cc3)nc2n1-c1ccc2c(n1)[C@](C)(O)CC2 [Compound 127]
  DC50: < 100 nM
  Dmax: > 75%

## C=CCn1c(=O)c2cnc(Nc3ccc(N4CCN(CC5CCN(c6ccc(NC7CCC(=O)NC7=O)cc6F)CC5)CC4)c(C)c3)nc2n1-c1ccc2c(n1)[C@@](O)(CC)CC2 (some centres unmarked) [Compound 128]
  DC50: < 100 nM
  Dmax: > 75%

## C=CCn1c(=O)c2cnc(Nc3ccc(N4CCN(CC5CCN(c6ccc(NC7CCC(=O)NC7=O)cc6F)CC5)CC4)c(C)c3)nc2n1-c1ccc2c(n1)[C@](C)(O)CC2 (some centres unmarked) [Compound 130]
  DC50: < 100 nM
  Dmax: > 75%

## C=CCn1c(=O)c2cnc(Nc3ccc(N4CCN(CC5CCN(c6ccc(NC7CCC(=O)NC7=O)cc6F)CC5)CC4)c(C)c3)nc2n1-c1ccc2c(n1)[C@@](C)(O)CC2 (some centres unmarked) [Compound 131]
  DC50: < 100 nM
  Dmax: > 75%

## C=CCn1c(=O)c2cnc(Nc3ccc(N4CCC(CN5CCN(c6ccc(NC7CCC(=O)NC7=O)cc6F)CC5)CC4)c(C)c3)nc2n1-c1ccc2c(n1)[C@](C)(O)CC2 (some centres unmarked) [Compound 132]
  DC50: < 100 nM
  Dmax: > 75%

## C=CCn1c(=O)c2cnc(Nc3ccc(N4CCC(CN5CCN(c6ccc(NC7CCC(=O)NC7=O)cc6F)CC5)CC4)c(C)c3)nc2n1-c1ccc2c(n1)[C@@](C)(O)CC2 (some centres unmarked) [Compound 133]
  DC50: < 100 nM
  Dmax: > 75%
